The values below are quoted from earlier work in US20100209503A1, “Bitter Taste Masking Dosage Form” (priority 2005, published 2010).

Each structure is given as a SMILES string. Structures can show the parent of a compound that is named as a salt.

For this series the following is noted: expression of General Notices of Japanese Pharmacopoeia 14th revision.
On to `Cc1c(C(C)C)c(=O)n(-c2ccccc2)n1C` [isopropylantipyrine], for which the solubility in water entry is “hardly soluble (not less than 0.001 g/mL and less than 0.01 g/mL)”.

For `NC(=O)c1cccnc1` [nicotinic acid amide], the solubility in water result was “easily soluble (not less than 0.1 g/mL and less than 1.0 g/mL)”.

On to `CN(C)C(=O)c1nc(CNC(=O)CN)n(-c2ccc(Cl)cc2C(=O)c2ccccc2Cl)n1` [rilmazafone hydrochloride], for which the solubility in water entry was “slightly soluble (not less than 0.033 g/mL and less than 0.1 g/mL)”.
